Entries after “also recorded” stand apart in the source; their conditions may differ.
Legend:
[1] = tested on: phosphorylated Akt (P-Akt) Ser 473; assay: Western blot of TGFα-induced phosphorylation of Akt in lung homogenates; assay type: in vivo; details: 1 day of Dox, PX-866 pretreatment 3 mg/kg by gavage, vs vehicle-treated transgenic mice
Excerpt: (§1) CCSP-rtTA activator mice expressing the reverse tetracycline-responsive transactivator (rtTA) under control of the 2.3-kb rat Clara Cell Secretory Protein (CCSP), a.k.a. secretoglobin, family 1A, member 1 (Scgblal) gene promoter were mated to conditional doxycycline (Dox) regulated transgenic mice containing the human TGFα cDNA under the control of seven copies of the tetracycline operon ((TetO)7-cmv TGFα) plus a minimal CMV promoter. Single transgenic (CCSP-rtTA+/−) and bitransgenic CCSP-rtTA+/−/(TetO)7-cmv TGFα+/− mice were produced within the same litter by mating homozygous CCSP-rtTA+/+ mice to hemizygous (TetO)?-cmv TGFα+/− mice. All mice were derived from the FVB/NJ inbred strain. Mice were maintained in virus-free containment. […]
Western Blots: Western blot analysis was performed on lung homogenates as previously described. Blots were incubated with antibodies against total and phosphorylated Akt (Ser 473 and Thr 308, Cell Signaling Technology) and quantified using the volume integration function on a PhosphorImager software Imagequant 5.2 (Molecular Dynamics, Sunnyvale, Calif.).
PX-866 inhibits TGFα-Induced Phosphorylation of Akt: CCSP-rtTA/otet-TGFαmice were treated with 1 day of Dox to induce TGFα expression. Phosphorylated Akt (P-Akt) levels for Ser 473 as measured by Western blot analysis increased over 5-fold compared to Dox-treated control mice.

[2] = tested on: CCSP-rtTA/otet-TGFα transgenic mice; assay: Progression of established TGFα-induced pulmonary fibrosis, PX-866 given after 4 weeks of Dox; assay type: in vivo; details: 8 weeks of Dox
Excerpt: CCSP-rtTA activator mice expressing the reverse tetracycline-responsive transactivator (rtTA) under control of the 2.3-kb rat Clara Cell Secretory Protein (CCSP), a.k.a. secretoglobin, family 1A, member 1 (Scgblal) gene promoter were mated to conditional doxycycline (Dox) regulated transgenic mice containing the human TGFα cDNA under the control of seven copies of the tetracycline operon ((TetO)7-cmv TGFα) plus a minimal CMV promoter. Single transgenic (CCSP-rtTA+/−) and bitransgenic CCSP-rtTA+/−/(TetO)7-cmv TGFα+/− mice were produced within the same litter by mating homozygous CCSP-rtTA+/+ mice to hemizygous (TetO)?-cmv TGFα+/− mice. All mice were derived from the FVB/NJ inbred strain. Mice were maintained in virus-free containment. All animal protocols were reviewed and approved by the Institutional Animal Use and Care Committee of the Cincinnati Children's Hospital Research Foundation. To induce TGFα expression, Dox (Sigma, St. Louis, Mo.) was administered in the drinking water at a final concentration of 0.5 mg/ml and in food (62.5 mg/kg). Water was replaced three times per week. Mice were genotyped as known in the art.
The PI3K inhibitor PX-866 (ProIX Pharmaceuticals, Tucson, Ariz.) was suspended into 5% EtOH to make a 5 mg/ml stock solution. Three hours prior to administration, food and water were removed from cages. Mice were then anesthetized (Isoflurane; Abbott Labs, Chicago, Ill.), and sterile vehicle or drug (3 mg/kg) was administered by gavage using a 20 gauge feeding catheter (Harvard Apparatus, Holliston, Mass.). Mice were treated with vehicle or PX-866 every other day for up to 4 weeks. Mice were killed with pentobarbital sodium (65 mg/ml) euthanasia solution (Fort Dodge Animal Health, Fort Dodge, Iowa) 1 day or 4 weeks after Dox and vehicle or PX-866 treatment.
(§2) Lung Histology, Immunostaining and Total Lung Collagen: Lungs were inflation fixed as previously described. […] Total lung collagen was determined by quantifying total soluble collagen (Sircol Collagen Assay, Biocolor, Ireland) as previously described.
(§3) Pulmonary Mechanics: Lung mechanics were assessed on mice with a computerized Flexi Vent system (SCIREQ, Montreal, Canada). […] The ventilation mode was changed to forced oscillatory signal (0.5-19.6 Hz), and respiratory impedance was measured. […]
(§4) Statistics: Means (+/−SEM) were calculated and plotted for each variable, by mouse group (CCSP/-Vehicle, CCSP/TGFα Vehicle, CCSP/TGFα PX-866). Data were assessed for normality using plots and the Shapiro-Wilk test. […]
Weights of mice in four different groups were measured at Baseline and at evenly spaced intervals during the next eight weeks, once per week. […] Differences in selected (a priori) Group*Time means were calculated and tested using a simulation-based adjustment for multiple comparisons. […]

[3] = tested on: CCSP-rtTA/otet-TGFα transgenic mice; assay: Prevention of TGFα-induced pulmonary fibrosis, PX-866 given at initiation of TGFα induction; assay type: in vivo; details: 4 weeks of Dox, PX-866 from initiation of TGFα induction
Excerpt: as §1, with “strain.” for “strain. Mice were maintained in virus-free containment.”
as §2, §3, §4

[4] = aqueous solutions at 37° C. or 0° C. at neutral pH; cited from earlier work
[5] = PX-866 from 4 weeks after TGFα induction

SMILES	TGFα-induced phosphorylation of Akt (P-Akt, Ser 473) [1]	lung fibrosis by histology [2, 5]	lung mechanics (airway resistance, airway and tissue elastance, compliance) [2, 5]	total lung collagen [2, 5]	body weight ([2]; PX-866 from beginning of week 5)	lung mechanics (airway resistance, airway and tissue elastance, compliance) [3]	stability in aqueous solution [4]
C=CCN(/C=C1/C(=O)O[C@H](COC)[C@@]2(C)C1=C(O)C(=O)C1=C2[C@H](OC(C)=O)C[C@]2(C)C(=O)CC[C@@H]12)CC=C [PX-866]	prevented TGFα-induced increases in P-Akt; also recorded: prevented increased phosphorylation of Akt	reduced pleural fibrosis as well as reduced perivascular and peribronchial fibrosis; also recorded: reduced fibrosis on lung histology; also recorded: attenuation of fibrosis	significantly improved compared with vehicle-treated mice; also recorded: improved lung mechanics; also recorded: reduced increases in airway resistance, and airway and tissue elastance, and decreases in compliance	reduced lung collagen levels; also recorded: unchanged compared with mice taken off Dox after 4 weeks	prevented further body weight loss; also recorded: normalization of body weights; also recorded: did not have changes in body weight	did not show any differences in lung mechanics; also recorded: prevented increases in airway resistance, airway and tissue elastance, and decreases in compliance	
COC[C@H]1OC(=O)c2coc3c2[C@@]1(C)C1=C(C3=O)[C@@H]2CCC(=O)[C@@]2(C)C[C@H]1OC(C)=O [Wortmannin]							subject to decomposition by hydrolytic opening of the furan ring

Reference: patent US20120046333A1, “Methods and Compositions of PI-3 Kinase Inhibitors for Treating Fibrosis” (Oncothyreon Incorporated, priority 2009, published 2012)
